Test system: E. coli
Assay: Biofilm formation inhibition, crystal violet reporter assay
Type: cell-based
Conditions: Escherichia coli
Procedure: The ability of each member of the pilot library to inhibit either E. coli or MDRAB biofilm formation at 100 μM was assessed using a crystal violet reporter assay (O'Toole et al., Mol. Microbiol., 1998, 30: 295-304).
This is typically indicative of biofilm inhibition via a traditional microbicidal mechanism instead of a mechanism that modulates biofilm formation through non-microbicidal mechanisms. […] At this concentration, a 97% reduction in bacterial growth was observed.

Which inhibition at 100 µM (100 μM) does the source give for `CCCCCc1[nH]c(N)nc1CCCCCc1ccccc1` [Compound 15, 5-pentyl-4-(5-phenylpentyl)-1H-imidazol-2-amine] here?
Its inhibition at 100 µM is 83 ± 0.8%.

What about the IC50 (dose-response) of the same compound?
Its IC50 is 13 µM.
